Measurements: US20230174584A1, “Antibiotic Compounds” (priority 2019, published 2023)
In brackets after ≈: the same amount, converted by molar mass.

Columns and labels:
Assay in all cases: MIC assay
Type in all cases: cell-based, Enterococcus faecium
E. faecium E0013 = details: Enterococcus faecium, E0013
Method in brief: (§1)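 CLSI broth microdilution in TSB + 0.002% polysorbate 80, 10^6 CFU/mL inoculum, 2-fold compound dilutions, 24 h at 37° C with shaking (600 rpm). VISA, VRSA and Enterococcus inocula grown to 0.5 McFarland before dilution; vancomycin-sensitive S. aureus by direct colony suspension. MIC (μg/mL) as median of ≥ triplicates.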

E. faecium E0300 = details: Enterococcus faecium, E0300
Method in brief: as §1

E. faecium E0333 = details: Enterococcus faecium, E0333
Method in brief: as §1

E. faecium E0506 = details: Enterococcus faecium, E0506
Method in brief: as §1

E. faecium E1679 = details: Enterococcus faecium, E1679
Method in brief: as §1

E. faecium E1763 = details: Enterococcus faecium, E1763
Method in brief: as §1

E. faecium E2297 = details: Enterococcus faecium, E2297
Method in brief: as §1

E. faecium E2373 = details: Enterococcus faecium, E2373
Method in brief: as §1

E. faecium E6016 = details: Enterococcus faecium, E6016
Method in brief: as §1

E. faecium E7319 = details: Enterococcus faecium, E7319
Method in brief: as §1

E. faecium E7329 = details: Enterococcus faecium, E7329
Method in brief: as §1

E. faecium E7401 = details: Enterococcus faecium, E7401
Method in brief: as §1

E. faecium E7403 = details: Enterococcus faecium, E7403
Method in brief: as §1

E. faecium E7413 = details: Enterococcus faecium, E7413
Method in brief: as §1

E. faecium E7424 = details: Enterococcus faecium, E7424
Method in brief: as §1

E. faecium E7464 = details: Enterococcus faecium, E7464
Method in brief: as §1

E. faecium E8218 = details: Enterococcus faecium, E8218
Method in brief: as §1

E. faecium E8235 = details: Enterococcus faecium, E8235
Method in brief: as §1

E. faecium E8237 = details: Enterococcus faecium, E8237
Method in brief: as §1

E. faecium E980 = details: Enterococcus faecium, E980
Method in brief: as §1

E. faecium EO321 = details: Enterococcus faecium, EO321
Method in brief: as §1

`CCCCCCCCCCNCCN[C@@]1(C)C[C@H](O[C@H]2[C@H](Oc3c4cc5cc3Oc3ccc(cc3Cl)[C@@H](O)[C@@H](NC(=O)[C@@H](CC(C)C)NC)C(=O)N[C@@H](CC(N)=O)C(=O)N[C@H]5C(=O)N[C@H]3C(=O)N[C@H](C(=O)N[C@H](C(=O)O)c5cc(O)c(CNCP(=O)(O)O)c(O)c5-c5cc3ccc5O)[C@H](O)c3ccc(c(Cl)c3)O4)O[C@H](CO)[C@@H](O)[C@@H]2O)O[C@@H](C)[C@H]1O` [Telavancin, reference compound] gave an MIC (E. faecium E0013) of 4 µg/mL (≈ 2.28 µM), an MIC (E. faecium E0300) of 8 µg/mL (≈ 4.56 µM) and an MIC (E. faecium E0333) of 8 µg/mL (≈ 4.56 µM). The MIC (E. faecium E0506) was 4 µg/mL (≈ 2.28 µM), the MIC (E. faecium E1679) was 16 µg/mL (≈ 9.11 µM) and the MIC (E. faecium E1763) was 1 µg/mL (≈ 0.57 µM). It also gave an MIC (E. faecium E2297) of 4 µg/mL (≈ 2.28 µM), an MIC (E. faecium E2373) of 8 µg/mL (≈ 4.56 µM) and an MIC (E. faecium E6016) of 4 µg/mL (≈ 2.28 µM). For the same molecule, the MIC (E. faecium E7319) was 8 µg/mL (≈ 4.56 µM), the MIC (E. faecium E7329) was ≤ 0.008 µg/mL and the MIC (E. faecium E7401) was ≤ 0.008 µg/mL. The MIC (E. faecium E7403) was ≤ 0.008 µg/mL, the MIC (E. faecium E7413) was 8 µg/mL (≈ 4.56 µM) and the MIC (E. faecium E7424) was ≤ 0.008 µg/mL. The MIC (E. faecium E7464) was ≤ 0.008 µg/mL, the MIC (E. faecium E8218) was ≤ 0.008 µg/mL and the MIC (E. faecium E8235) was ≤ 0.008 µg/mL. For the same molecule, the MIC (E. faecium E8237) was 16 µg/mL (≈ 9.11 µM), the MIC (E. faecium E980) was 0.0156 µg/mL (≈ 0.0089 µM) and the MIC (E. faecium EO321) was 16 µg/mL (≈ 9.11 µM).

With `CN[C@H](CC(C)C)C(=O)N[C@H]1C(=O)N[C@@H](CC(N)=O)C(=O)N[C@H]2C(=O)N[C@H]3C(=O)N[C@H](C(=O)N[C@H](C(=O)O)c4cc(O)cc(O)c4-c4cc3ccc4O)[C@H](O)c3ccc(c(Cl)c3)Oc3cc2cc(c3O[C@@H]2O[C@H](CO)[C@@H](O)[C@H](O)[C@H]2O[C@H]2C[C@](C)(N)[C@H](O)[C@H](C)O2)Oc2ccc(cc2Cl)[C@H]1O` [Vancomycin, reference compound] the MIC (E. faecium E0013) was > 128 µg/mL, the MIC (E. faecium E0300) was > 128 µg/mL and the MIC (E. faecium E0333) was > 128 µg/mL. For the same molecule, the MIC (E. faecium E0506) was > 128 µg/mL, the MIC (E. faecium E1679) was > 128 µg/mL and the MIC (E. faecium E1763) was 128 µg/mL (≈ 88.3 µM). The MIC (E. faecium E2297) was > 128 µg/mL, the MIC (E. faecium E2373) was > 128 µg/mL and the MIC (E. faecium E6016) was > 128 µg/mL. For the same molecule, the MIC (E. faecium E7319) was > 128 µg/mL, the MIC (E. faecium E7329) was 1 µg/mL (≈ 0.69 µM) and the MIC (E. faecium E7401) was 16 µg/mL (≈ 11 µM). The MIC (E. faecium E7403) was 16 µg/mL (≈ 11 µM), the MIC (E. faecium E7413) was > 128 µg/mL and the MIC (E. faecium E7424) was 4 µg/mL (≈ 2.76 µM). The MIC (E. faecium E7464) was 16 µg/mL (≈ 11 µM), the MIC (E. faecium E8218) was 8 µg/mL (≈ 5.52 µM) and the MIC (E. faecium E8235) was 16 µg/mL (≈ 11 µM). The MIC (E. faecium E8237) was > 128 µg/mL, the MIC (E. faecium E980) was 0.5 µg/mL (≈ 0.345 µM) and the MIC (E. faecium EO321) was > 128 µg/mL.
